Results taken from patent publication US9499495B2, “Quinazolines and azaquinazolines as dual inhibitors of RAS/RAF/MEK/ERK and PI3K/AKT/PTEN/mTOR pathways” (Asana Biosciences, LLC, priority 2013, dated 2016).

What was measured:
pERK in A375 cells = assay: In Cell Western (ICW) assay, pERK in A375 cells; type: cell-based; conditions: Homo sapiens, A-375, 3 h treatment
Procedure: Cell lines A375, A2058 and RKO obtained from the ATCC as provided above, were grown, and after attaining ˜80% confluency were trypsinized, centrifuged and resuspended in fresh media. The cells were seeded at the specified density (20,000 to 50,000) in a 96-well format black-well clear bottom plate (Corning) and incubated overnight at 37° C. in a 5% CO2 incubator. The next day, compound dilutions of test compounds were prepared in 100% DMSO followed by dilutions in respective media. Treatment of test compounds was performed for 3 h at 37° C. in 5% CO2 incubator. Following 3 h drug treatment, the conditional media was discarded and the cells were washed once with cPBS (PBS containing 0.1% magnesium chloride hexahydrate and 0.1% anhydrous calcium chloride) and fixed with 4% paraformaldehyde in cPBS for 1 h at rt. After fixing, the cells were given three washes using cPBST (cPBS containing 0.1% Triton™ X-100 reagent) and then blocked using blocking solution (5% skimmed milk powder or 5% BSA prepared in cPBST) for 2 h at rt with shaking at 300 rpm. The cells were again washed thrice with cPBST and incubated with primary antibody phospho-p44/42 MAPK(Erk1/2)(Thr202/204) antibody (Cell Signaling, Catalog # 9101L), phospho S6 ribosomal protein (Cell Signaling, Catalog #4858L), phospho AKT (Thr 308) (Cell Signaling, Catalog #9275) or phospho AKT (Ser 473) (Cell Signaling, Catalog #4060L) in specified dilutions (1:500-1:2500), prepared in respective blocking solutions, in a racker overnight at 4° C. The next day, the cells were washed with 1× Delfia® wash buffer (4×1 wash) and incubated with secondary antibody (Delfia®-Eu-N1 labeled anti-rabbit antibody; PerkinElmer, Catalog #AD0105; dilutions: 1:2000 to 1:6000 in Delfia® assay buffer (PerkinElmer, Catalog #1244-111)) for 2 h at rt in the dark at 300 rpm. The cells were then given four washes with 1× Delfia® wash buffer and incubated with Wallac Delfia® Enhancement solution (100 μL; PerkinElmer, Catalog #1244-105) for 20 min at rt in the dark at 300 rpm. The fluorescence emission was then read at 615 nm with an excitation wavelength of 340 nm using a Victor V5 Fluorometer (Perkin Elmer, US). The cells were then washed once with 1×cPBS and incubated with 100 μL of 0.5 mg/mL of Hoechst 33258 dye prepared in cPBS and read at 460 nm with 355 nm excitation, thereby evaluating the correction factor.
The % inhibition for the test compounds of formula (I) (new chemical entities (NCEs)) was calculated keeping DMSO control as 0% and the IC50 values were determined using sigmoidal dose response curve fit in GraphPad Prism® v5 software.

A375 cells = assay: XTT assay for cell viability, A375 cells; type: cell-based; conditions: Homo sapiens, A-375, 72 h
Procedure: Cell lines (A375 ATCC No. CRL-1619, A2058 ATCC No. CRL-11147 and RKO ATCC No. CRL-2577, American Type Culture Collection (ATCC), Manassas Va.) once attaining ˜80% confluency were trypsinized, centrifuged and resuspended in fresh media. Cells (1000-2000/per well) were seeded in 96-well plate and incubated over-night at 37° C. in a 5% CO2 incubator. Compound dilutions were prepared in 100% DMSO followed by dilutions in the respective media. The cells were treated with NCEs for 72 h at 37° C. in 5% CO2 incubator. After 72 h, freshly prepared XTT (1 mg/ml)/PMS (25 μM) solution was added, incubated for 2 to 3 h at 37° C. and the absorbance was measured at 450 nm using an ELISA plate reader. Keeping DMSO control as 100%, the effect of the compound to inhibit the cell proliferation was calculated and the GI50 values were determined using sigmoidal dose response curve fit in GraphPad Prism® v5 software.

B-RAFV600E = biological target: T1, B-RAFV600E (Homo sapiens, UniProt P15056, V600E); assay: B-RAFV600E radiometric assay; type: biochemical; conditions: read-out: Kinase assay B-Raf
T1 construct: purchased Millipore, USA 14-557
T1 sequence (P15056 416-766 V600E limits assumed): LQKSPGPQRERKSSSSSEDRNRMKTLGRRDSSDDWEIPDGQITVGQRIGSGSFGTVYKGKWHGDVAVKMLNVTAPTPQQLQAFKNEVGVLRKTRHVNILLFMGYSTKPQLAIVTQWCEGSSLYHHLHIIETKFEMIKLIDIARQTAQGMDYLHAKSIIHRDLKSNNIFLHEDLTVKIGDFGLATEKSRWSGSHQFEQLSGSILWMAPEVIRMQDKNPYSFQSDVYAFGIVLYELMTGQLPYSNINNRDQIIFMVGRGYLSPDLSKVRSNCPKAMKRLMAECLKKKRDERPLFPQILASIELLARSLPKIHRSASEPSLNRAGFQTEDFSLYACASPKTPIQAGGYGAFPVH
Procedure: Compound inhibition for B-RAFV600E was determined through radiometric assay using a BRAF enzyme (Catalog No. 14-557, Millipore, USA) and MEK-K97M protein as a substrate (Catalog No. 0785-0000-1, ProqQinase GmbH, Germany). The B-RAF kinase catalyzes the phosphorylation of MEK protein in the presence of gamma ATP (PLC-101, Jonaki, CCMB, Hyderabad), cold ATP and Mg^2+.
The phosphorylated protein product is detected by the scintillation counter Topcount® machine (Perkin Elmer). This assay has been adapted from the method previously reported by Yeh et al. (2007, Clinical Cancer Research; 13, 1576-1583). The assay measures the B-RAF mediated transfer of 32P from the gamma position of radiolabeled ATP onto MEK1-KD. The labeled phosphorylated protein was measured in MicroBeta® Trilux Counter (Perkin Elmer). The assay was validated with reference compounds RAF1 Kinase Inhibitor I and ZM 336372 inhibitor which are reported to be inhibitors of B-RAF enzyme (Lackey, 2000, Medicinal Chemistry Letters; 10(3):223-226; Kupcho, “Fluorescent High throughput kinase cascade assays for inhibitor characterization, RAF-MEK-ERK pathway, www.invitrogen.com, and Hall-Jackson, 1999, Chemical Biology; 6(8):559-568). B-RAF enzyme mixture (13 μL) was added to compound wells containing 2 μL of the NCE in 1% DMSO and incubated for 45 min at rt on a shaking incubator at 300 rpm. MEK-K97M (0.5 μg) and cold ATP to a final concentration of 5 μM, and hot ATP 0.1 μCi in a volume of 10 μL was added to each well and incubated for 2 h at rt on a shaking incubator at 300 rpm. The reaction was stopped by addition of […] (13 μL) containing ATP (1 mM: 495 μL 1N HCl and 5 μL 100 mM ATP). Aliquot (30 μL) was then transferred to the center of a 2 cm×2 cm P81 paper. P81 paper was washed 8×5 min each with ortho-phosphoric acid (0.5%). P81 papers are washed twice with acetone for […] Assay squares were allowed to dry for […] at 37° C. P81 paper are transferred to Optiplate™ (Perkin Elmer) and counted in a Topcount® counter (Perkin Elmer). Data was plotted against the compound concentration to generate dose-response curves and IC50 values were determined using a sigmoidal dose response curve fit GraphPad Prism® v5 software.

mTOR kinase = biological target: T2, mTOR kinase (Homo sapiens, UniProt P42345); assay: mTOR kinase TR-FRET assay; type: biochemical
T2 construct: purchased Millipore, US
T2 sequence (P42345 1362-2549 limits assumed): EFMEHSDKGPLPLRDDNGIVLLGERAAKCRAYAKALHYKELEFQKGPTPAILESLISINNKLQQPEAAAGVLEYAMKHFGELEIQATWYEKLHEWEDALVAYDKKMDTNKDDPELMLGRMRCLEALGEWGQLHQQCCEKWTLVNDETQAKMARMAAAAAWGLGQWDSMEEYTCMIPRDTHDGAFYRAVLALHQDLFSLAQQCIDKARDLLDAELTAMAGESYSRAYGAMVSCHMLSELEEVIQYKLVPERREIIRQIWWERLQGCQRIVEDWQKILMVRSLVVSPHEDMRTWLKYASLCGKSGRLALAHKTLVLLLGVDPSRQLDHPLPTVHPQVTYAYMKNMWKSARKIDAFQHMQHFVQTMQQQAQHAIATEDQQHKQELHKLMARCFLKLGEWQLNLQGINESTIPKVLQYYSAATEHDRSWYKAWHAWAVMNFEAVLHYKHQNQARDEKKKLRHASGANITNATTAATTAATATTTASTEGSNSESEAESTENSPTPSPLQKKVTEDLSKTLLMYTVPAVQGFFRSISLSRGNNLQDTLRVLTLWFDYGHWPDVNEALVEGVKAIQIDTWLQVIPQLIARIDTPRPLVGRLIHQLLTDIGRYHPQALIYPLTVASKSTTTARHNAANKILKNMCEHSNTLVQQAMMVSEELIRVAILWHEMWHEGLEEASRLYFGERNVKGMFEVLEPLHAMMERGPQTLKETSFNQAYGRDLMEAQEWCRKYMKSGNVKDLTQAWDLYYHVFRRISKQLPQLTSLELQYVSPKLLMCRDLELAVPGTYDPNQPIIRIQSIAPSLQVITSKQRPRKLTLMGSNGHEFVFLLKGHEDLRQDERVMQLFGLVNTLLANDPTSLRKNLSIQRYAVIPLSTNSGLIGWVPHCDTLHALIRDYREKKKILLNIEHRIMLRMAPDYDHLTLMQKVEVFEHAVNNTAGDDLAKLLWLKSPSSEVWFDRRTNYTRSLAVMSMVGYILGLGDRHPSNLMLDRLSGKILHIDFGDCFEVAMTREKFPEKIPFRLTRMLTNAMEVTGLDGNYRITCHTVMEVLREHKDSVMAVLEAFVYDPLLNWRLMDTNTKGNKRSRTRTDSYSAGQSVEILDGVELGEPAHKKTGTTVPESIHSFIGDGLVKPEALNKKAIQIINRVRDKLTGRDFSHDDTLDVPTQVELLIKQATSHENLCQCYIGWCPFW
Procedure: Compound inhibition for mTOR kinase was determined by homogeneous TR-FRET assay using ULight-p70 S6K (Thr 389) peptide as substrate. mTOR enzyme (Millipore, US; […]) was used in the assay. The reaction buffer was HEPES (50 mM, pH 7.5), EGTA (1 mM), and MnCl2 (3 mM). Test compound was pre-incubated with mTOR for 30 min followed by 50 nM ULight-p70 S6K (Thr 389) peptide along with ATP (20 μM).
After incubating the reaction mixture for 30 min, Eu-labeled anti-phospho-substrate antibody (1 nM, Perkin Elmer, USA) was added. Fluorescence emission at […] was measured upon excitation at 340 nm. The compound dilution was carried out in 100% DMSO followed by a buffer dilution. The kinase reaction was incubated for 1 h at rt followed by the addition of substrate-ATP mix and incubated at rt for 1 h. The reaction was terminated by the addition of EDTA followed by the addition of detection mix. IC50 values were determined using a sigmoidal dose response curve fit, GraphPad Prism® v5 software.

CCCS(=O)(=O)Nc1ccc(F)c(-c2cc(OC)c3nc(-c4cnc(N)nc4)nc(N4CCOCC4)c3c2)c1F [Example 6, N-(3-(2-(2-aminopyrimidin-5-yl)-8-methoxy-4-morpholinoquinazolin-6-yl)-2,4-difluorophenyl)propane-1-sulfonamide]
IC50 (pERK in A375 cells): 100 to 1000 nM
IC50 (A375 cells): 100 to 1000 nM
IC50 (B-RAFV600E): 1 to 100 nM
IC50 (mTOR kinase): 1 to 100 nM

COc1cc(-c2cccc(NS(=O)(=O)c3c(F)cccc3F)c2F)cc2c(N3CCOCC3)nc(-c3ccc(NC(=O)NCCO)cc3)nc12 [Example 12, 2,6-difluoro-N-(2-fluoro-3-(2-(4-(3-(2-hydroxyethyl)ureido)phenyl)-8-methoxy-4-morpholinoquinazolin-6-yl)phenyl)benzenesulfonamide]
IC50 (pERK in A375 cells): 1000 to 10000 nM
IC50 (B-RAFV600E): 100 to 1000 nM
IC50 (mTOR kinase): 1 to 100 nM

COc1cc(-c2cccc(NS(=O)(=O)c3c(F)cccc3F)c2F)cc2c(N3CCOCC3)nc(-c3cnc4[nH]ccc4c3)nc12 [Example 16, 2,6-difluoro-N-(2-fluoro-3-(8-methoxy-4-morpholino-2-(1H-pyrrolo[2,3-b]pyridin-5-yl)quinazolin-6-yl)phenyl)benzenesulfonamide]
IC50 (pERK in A375 cells): 100 to 1000 nM
IC50 (B-RAFV600E): 100 to 1000 nM
IC50 (mTOR kinase): 100 to 1000 nM

CNC(=O)Nc1ccc(-c2nc(N3CCOCC3)c3cc(-c4cccc(NS(=O)(=O)CCCF)c4F)cc(OC)c3n2)cc1 [Example 32, 3-fluoro-N-(2-fiuoro-3-(8-methoxy-2-(4-(3-methylureido)phenyl)-4-morpholinoquinazolin-6-yl)phenyl)propane-1-sulfonamide]
IC50 (pERK in A375 cells): 100 to 1000 nM
IC50 (B-RAFV600E): 100 to 1000 nM
IC50 (mTOR kinase): 1 to 100 nM

Nc1ccc(-c2nc(N3CCOCC3)c3cc(-c4cccc(NS(=O)(=O)CCCF)c4F)cc(OCC4CC4)c3n2)cn1 [Example 57, N-(3-(2-(6-aminopyridin-3-yl)-8-(cyclopropylmethoxy)-4-morpholinoquinazolin-6-yl)-2-fluorophenyl)-3-fluoropropane-1-sulfonamide]
IC50 (pERK in A375 cells): 1 to 100 nM
IC50 (B-RAFV600E): 1 to 100 nM
IC50 (mTOR kinase): 100 to 1000 nM

Nc1ccc(-c2nc(N3CCOCC3)c3cc(-c4cccc(NS(=O)(=O)CCCF)c4F)cc(OCCO)c3n2)cn1 [Example 58, N-(3-(2-(6-aminopyridin-3-yl)-8-(2-hydroxyethoxy)-4-morpholinoquinazolin-6-yl)-2-fluorophenyl)-3-fluoropropane-1-sulfonamide]
IC50 (pERK in A375 cells): 100 to 1000 nM
IC50 (B-RAFV600E): 1 to 100 nM
IC50 (mTOR kinase): 1 to 100 nM

CCNc1ccc(-c2nc(N3CCOCC3)c3nc(-c4cccc(NS(=O)(=O)CCCF)c4F)ccc3n2)cn1 [Example 123, N-(3-(2-(6-(ethylamino)pyridin-3-yl)-4-morpholinopyrido[3,2-d]pyrimidin-6-yl)-2-fluorophenyl)-3-fluoropropane-1-sulfonamide]
IC50 (pERK in A375 cells): 1 to 100 nM
IC50 (B-RAFV600E): 1 to 100 nM
IC50 (mTOR kinase): 1 to 100 nM

COc1cc(-c2cccc(NS(=O)(=O)CCCF)c2F)cc2c(N3CCOCC3)nc(-c3ccc(NC(C)=O)cc3)nc12 [Example 125, N-(4-(6-(2-fluoro-3-(3-fluoropropylsulfonamido)phenyl)-8-methoxy-4-morpholinoquinazolin-2-yl)phenyl)acetamide]
IC50 (pERK in A375 cells): 1 to 100 nM
IC50 (B-RAFV600E): 100 to 1000 nM
IC50 (mTOR kinase): 1 to 100 nM

C[C@@H]1COCCN1c1nc(-c2cnc(N)nc2)nc2c(OCCF)cc(-c3cccc(NS(=O)(=O)CCCF)c3F)cc12 [Example 141, (R)-N-(3-(2-(2-aminopyrimidin-5-yl)-8-(2-fluoroethoxy)-4-(3-methylmorpholino)quinazolin-6-yl)-2-fluorophenyl)-3-fluoropropane-1-sulfonamide]
IC50 (B-RAFV600E): 1 to 100 nM
IC50 (mTOR kinase): 100 to 1000 nM

C[C@@H]1COCCN1c1nc(-c2cnc(N)c(F)c2)nc2c(OCCF)cc(-c3cccc(NS(=O)(=O)CCCF)c3F)cc12 [Example 142, (R)-N-(3-(2-(6-amino-5-fluoropyridin-3-yl)-8-(2-fluoroethoxy)-4-(3-methylmorpholino)quinazolin-6-yl)-2-fluorophenyl)-3-fluoropropane-1-sulfonamide]
IC50 (B-RAFV600E): 1 to 100 nM
IC50 (mTOR kinase): 100 to 1000 nM

COc1cc(-c2cccc(NS(=O)(=O)CCCF)c2F)cc2c(N3CCOC[C@H]3C)nc(-c3cnc(N)cn3)nc12 [Example 143, (R)-N-(3-(2-(5-aminopyrazin-2-yl)-8-methoxy-4-(3-methylmorpholino)quinazolin-6-yl)-2-fluorophenyl)-3-fluoropropane-1-sulfonamide]
IC50 (B-RAFV600E): 1 to 100 nM
IC50 (mTOR kinase): 100 to 1000 nM

COc1cc(-c2cccc(NS(=O)(=O)CCCF)c2F)cc2c(N3CCOC[C@H]3C)nc(-c3cnc(N)cc3C#N)nc12 [Example 144, (R)-N-(3-(2-(6-amino-4-cyanopyridin-3-yl)-8-methoxy-4-(3-methylmorpholino)quinazolin-6-yl)-2-fluorophenyl)-3-fluoropropane-1-sulfonamide]
IC50 (B-RAFV600E): 1 to 100 nM
IC50 (mTOR kinase): 100 to 1000 nM
